Experimental data reported in the supplement of paper PMC10307832.

Assays:
Test in all cases: relative viability (nuclei count vs DMSO), 5 days (fraction); higher = more cells survive
Ibrutinib + Trametinib = compound: C=CC(=O)N1CCC[C@@H](n2nc(-c3ccc(Oc4ccccc4)cc3)c3c(N)ncnc32)C1 [Ibrutinib] + CC(=O)Nc1cccc(-n2c(=O)n(C3CC3)c(=O)c3c(Nc4ccc(I)cc4F)n(C)c(=O)c(C)c32)c1 [Trametinib] (partner 0.02 µM)
Method in brief: (§1)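 Dosing by pin tool came one day after lung cancer cell lines were seeded in 1536-well plates, using either one drug or a fixed anchor-drug dose plus five library-drug doses (not always all listed) in √10 steps. After 5 days, nuclei were counted on 4× images. Relative viability is treated-well nuclei count divided by vehicle-well nuclei count, and values are medians of duplicate plates.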

Ibrutinib + Tozasertib = compound: C=CC(=O)N1CCC[C@@H](n2nc(-c3ccc(Oc4ccccc4)cc3)c3c(N)ncnc32)C1 [Ibrutinib] + Cc1cc(Nc2cc(N3CCN(C)CC3)nc(Sc3ccc(NC(=O)C4CC4)cc3)n2)n[nH]1 [Tozasertib] (partner 0.1 µM)
Method in brief: as §1

Ibrutinib + Dasatinib = compound: C=CC(=O)N1CCC[C@@H](n2nc(-c3ccc(Oc4ccccc4)cc3)c3c(N)ncnc32)C1 [Ibrutinib] + Cc1nc(Nc2ncc(C(=O)Nc3c(C)cccc3Cl)s2)cc(N2CCN(CCO)CC2)n1 [Dasatinib] (partner 0.075 µM)
Method in brief: as §1

Ibrutinib + Foretinib = compound: C=CC(=O)N1CCC[C@@H](n2nc(-c3ccc(Oc4ccccc4)cc3)c3c(N)ncnc32)C1 [Ibrutinib] + COc1cc2c(Oc3ccc(NC(=O)C4(C(=O)Nc5ccc(F)cc5)CC4)cc3F)ccnc2cc1OCCCN1CCOCC1 [Foretinib] (partner 0.25 µM)
Method in brief: as §1

Cell Line | relative viability (Ibrutinib + Trametinib; first compound 0.005 µM) | relative viability (Ibrutinib + Trametinib; first compound 0.01581 µM) | relative viability (Ibrutinib + Trametinib; first compound 0.05 µM) | relative viability (Ibrutinib + Trametinib; first compound 0.1581 µM) | relative viability (Ibrutinib + Trametinib; first compound 0.5 µM) | relative viability (Ibrutinib + Tozasertib; first compound 0.005 µM) | relative viability (Ibrutinib + Tozasertib; first compound 0.01581 µM) | relative viability (Ibrutinib + Tozasertib; first compound 0.05 µM) | relative viability (Ibrutinib + Tozasertib; first compound 0.1581 µM) | relative viability (Ibrutinib + Tozasertib; first compound 0.5 µM) | relative viability (Ibrutinib + Dasatinib; first compound 0.005 µM) | relative viability (Ibrutinib + Dasatinib; first compound 0.01581 µM) | relative viability (Ibrutinib + Dasatinib; first compound 0.05 µM) | relative viability (Ibrutinib + Dasatinib; first compound 0.1581 µM) | relative viability (Ibrutinib + Dasatinib; first compound 0.5 µM) | relative viability (Ibrutinib + Foretinib; first compound 0.005 µM) | relative viability (Ibrutinib + Foretinib; first compound 0.01581 µM) | relative viability (Ibrutinib + Foretinib; first compound 0.05 µM) | relative viability (Ibrutinib + Foretinib; first compound 0.1581 µM) | relative viability (Ibrutinib + Foretinib; first compound 0.5 µM)
NCI-H522 | 0.757 | 0.714 | 0.661 | 0.71 | 0.57 | 0.503 | 0.521 | 0.476 | 0.55 | 0.46 | 0.744 | 0.584 | 0.731 | 0.773 | 0.723 |  |  |  |  | 
NCI-H322M | 0.466 | 0.457 | 0.532 | 0.519 | 0.508 | 0.426 | 0.459 | 0.415 | 0.474 | 0.354 | 0.218 | 0.236 | 0.242 | 0.241 | 0.238 | 0.872 | 0.864 | 0.899 | 0.989 | 0.642
COR-L 105 | 0.381 | 0.384 | 0.407 | 0.419 | 0.339 | 0.35 | 0.337 | 0.339 | 0.373 | 0.303 | 0.258 | 0.369 | 0.229 | 0.322 | 0.162 | 1 | 0.933 | 0.969 | 1.04 | 0.602
LOU-NH91 | 0.744 | 0.74 | 0.725 | 0.783 | 0.655 | 0.699 | 0.582 | 0.581 | 0.648 | 0.488 | 0.473 | 0.474 | 0.485 | 0.522 | 0.38 | 0.861 | 0.769 | 0.679 | 0.913 | 0.568
PC-3 [JPC-3] | 0.617 | 0.592 | 0.617 | 0.754 | 0.456 | 0.872 | 0.772 | 0.873 | 0.99 | 0.681 | 0.865 | 0.862 | 0.774 | 0.979 | 0.327 | 1.05 | 0.936 | 0.891 | 1.09 | 0.547
NCI-H2228 | 0.379 | 0.488 | 0.412 | 0.55 | 0.298 | 0.282 |  | 0.253 | 0.307 | 0.187 | 0.584 |  | 0.553 | 0.5 | 0.428 | 0.845 |  | 0.915 | 0.892 | 0.609
NCI-H1650 | 0.881 | 0.535 | 0.46 | 0.527 | 0.477 | 0.329 | 0.36 | 0.4 | 0.394 | 0.302 | 0.304 | 0.281 | 0.321 | 0.369 | 0.346 | 1.01 | 0.793 | 0.934 |  | 0.732
LCLC-103H | 0.677 | 0.645 | 0.716 | 0.739 | 0.605 | 0.493 | 0.495 | 0.531 | 0.527 | 0.439 | 0.496 | 0.432 | 0.454 | 0.489 | 0.318 | 0.809 | 0.623 | 0.792 | 0.835 | 0.728
HCC-15 | 0.387 | 0.367 | 0.419 | 0.432 | 0.365 | 0.464 | 0.413 | 0.563 | 0.396 | 0.357 | 0.678 | 0.615 | 0.637 | 0.51 | 0.66 | 0.978 | 0.929 | 1.08 | 1.08 | 1.01
UMC-11 | 0.445 | 0.698 | 0.772 | 0.667 | 0.516 | 0.194 | 0.203 | 0.203 | 0.203 | 0.188 | 0.417 | 0.411 | 0.485 | 0.548 | 0.486 | 1.04 | 1.03 | 1.04 | 0.993 | 1.02
NCI-H2087 | 0.166 | 0.196 | 0.199 |  | 0.2 | 0.303 | 0.206 | 0.262 |  | 0.233 | 1.11 | 0.91 | 1.01 |  | 0.951 | 1.18 | 1.21 | 1.09 |  | 1.24
NCI-H1703 |  |  |  |  |  |  |  |  |  |  |  |  |  |  |  |  | 0.322 | 0.317 | 0.307 | 0.338
ABC-1 |  |  |  |  |  | 0.151 | 0.149 | 0.159 | 0.198 | 0.187 | 0.493 |  | 0.628 | 0.555 | 0.633 | 1.27 | 0.961 | 1.28 | 1.09 | 0.897
NCI-H1792 |  | 0.404 | 0.48 | 0.44 | 0.36 |  |  |  |  |  |  | 0.759 | 0.755 |  | 0.685 |  |  |  |  | 
NCI-H1299 |  |  |  |  |  |  |  |  |  |  |  |  |  |  |  | 0.557 | 1.07 | 1.14 | 1.09 | 1.11
EBC-1 |  |  |  |  |  |  |  |  |  |  |  |  |  |  |  | 0.0898 | 0.102 | 0.102 | 0.0945 | 0.098
IA-LM |  |  |  |  |  |  |  |  |  |  |  |  |  |  |  | 1.11 | 1.04 | 1.1 | 1.24 | 1.1
NCI-H1563 |  |  |  |  |  |  |  |  |  |  | 0.431 | 0.456 | 0.507 | 0.46 | 0.415 | 0.985 | 0.92 | 0.935 | 0.998 | 0.88
A549 |  |  |  |  |  |  |  |  |  |  |  |  |  |  |  | 0.878 | 0.852 | 1.03 | 0.984 | 0.877
